In article PMC5737711 (ACS chemical neuroscience, 2017):

Columns and labels:
[1] = target: CD36-Aβ interaction (recombinant extracellular domain of human CD36, fibrillar hAβ 1-42) (Homo sapiens, UniProt P16671); assay: Colorimetric assay for inhibitors of Aβ-CD36 interaction; format: binding; details: for Activity on the CD36-Aβ interaction (screen): first evaluated at 100 μM
[2] = system: CD36-Aβ interaction; details: cited from earlier work
[3] = system: N9 microglia cells; details: cited from earlier work

Chain of CD36-Aβ interaction (recombinant extracellular domain of human CD36, fibrillar hAβ 1-42) (P16671 30-439): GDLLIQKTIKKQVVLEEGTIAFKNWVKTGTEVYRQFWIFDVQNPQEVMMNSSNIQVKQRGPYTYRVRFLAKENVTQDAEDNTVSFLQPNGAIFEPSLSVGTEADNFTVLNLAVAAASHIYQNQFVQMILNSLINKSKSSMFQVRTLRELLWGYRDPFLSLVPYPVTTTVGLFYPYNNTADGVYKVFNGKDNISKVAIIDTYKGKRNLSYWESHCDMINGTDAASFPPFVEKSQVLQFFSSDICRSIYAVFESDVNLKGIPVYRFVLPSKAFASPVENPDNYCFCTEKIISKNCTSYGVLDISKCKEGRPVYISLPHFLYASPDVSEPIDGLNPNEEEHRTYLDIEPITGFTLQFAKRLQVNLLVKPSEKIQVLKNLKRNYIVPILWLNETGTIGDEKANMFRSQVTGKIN

SMILES	Activity on the CD36-Aβ interaction (screen) [1]	Mode of inhibition of the interaction CD36-Aβ ([1]; from dose response profile)	Inhibition of CD36-Aβ interaction in a cell-based assay [2]	Effect on production of ROS induced by Aβ [3]
COc1ccc2cc(NC(=O)C3=NO[C@H]4[C@H](O)C=C[C@@H](O)[C@@]4(O)C3)c(=O)oc2c1OC [Compound 1, Trichodermamide A]	lacked activity	–	–	–
COc1ccc2cc(NC(=O)C3=NO[C@H]4[C@H](O)C=C[C@@H](Cl)[C@@]4(O)C3)c(=O)oc2c1OC [Compound 2, Trichodermamide B]	lacked activity	–	–	–
C[C@H]1[C@H](C)CC[C@]2(C(=O)O)CC[C@]3(C)C(=CC[C@@H]4[C@@]5(C)CC[C@H](O)C(C)(C)[C@@H]5CC[C@]43C)[C@H]12 [ursolic acid]	–	competitive inhibitor	inhibitor of CD36-Aβ interaction	inhibits the production of ROS
